Experimental data as given in ChEMBL document CHEMBL5576077, “A small-molecule degron with a phenylpropionic acid scaffold” (Bioorg Med Chem, 2024).
One block for each compound: values may come before it. The source made the active and inactive calls. The calls are words filed in the database; no cut-off is given here.

Experiments:
[1] = molecular target: T1, S-phase kinase-associated protein 2/Haloalkane dehalogenase (Homo sapiens) (UniProt Q13309+P0A3G3); assay: PROTAC activity at Skp2 in HEK293 cells/HaloTag7-ELuc fusion protein (unknown origin) stably expressed in HEK293 cells assessed as protein degradation at 1 to 10 uM incubated for 24 hrs by Western blot analysis; format: cell-based; details: dose 1-10 µM
[2] = molecular target: T1, S-phase kinase-associated protein 2/Haloalkane dehalogenase (Homo sapiens); assay: PROTAC activity at Skp2 in HEK293 cells/HaloTag7 fusion protein (unknown origin) stably expressed in HEK293 cells assessed as protein degradation by measuring test to control ratio at 3 uM incubated for 24 hrs by Western blot analysis; format: cell-based
[3] = molecular target: T1, S-phase kinase-associated protein 2/Haloalkane dehalogenase (Homo sapiens); assay: PROTAC activity at Skp2 in HEK293 cells/HaloTag7 fusion protein (unknown origin) stably expressed in HEK293 cells assessed as protein degradation by measuring test to control ratio at 1 uM incubated for 24 hrs by Western blot analysis; format: cell-based
[4] = molecular target: T1, S-phase kinase-associated protein 2/Haloalkane dehalogenase (Homo sapiens); assay: PROTAC activity at Skp2 in HEK293 cells/HaloTag7 fusion protein (unknown origin) stably expressed in HEK293 cells assessed as protein degradation by measuring test to control ratio at 0.3 uM incubated for 24 hrs by Western blot analysis; format: cell-based
[5] = molecular target: T2, S-phase kinase-associated protein 2/Bifunctional ligase/repressor BirA (Homo sapiens) (UniProt P06709+Q13309); assay: PROTAC activity at Skp2 in HeLa cells/N-terminal HaloTag7-fused TurboID (unknown origin) stably expressed in HeLa cells assessed as protein degradation at 30 uM incubated for 8 hrs by Western blot analysis; format: cell-based
[6] = molecular target: T2, S-phase kinase-associated protein 2/Bifunctional ligase/repressor BirA (Homo sapiens); assay: PROTAC activity at Skp2 in HeLa cells/N-terminal HaloTag7-fused TurboID (unknown origin) stably expressed in HeLa cells assessed as protein degradation at 30 uM incubated for 3 to 8 hrs in presence of MG132 by Western blot analysis; format: cell-based; details: time 3-8 hrs
[7] = Thermal stabilization of GST-fused HaloTag fusion protein (unknown origin) at 100 uM by SYPRO Orange dye based TSA assay
[8] = molecular target: T2, S-phase kinase-associated protein 2/Bifunctional ligase/repressor BirA (Homo sapiens); assay: PROTAC activity at Skp2 in HeLa cells/N-terminal HaloTag7-fused TurboID (unknown origin) stably expressed in HeLa cells assessed as protein degradation at 30 uM incubated for 3 to 8 hrs in presence of NH4Cl by Western blot analysis; format: cell-based; details: time 3-8 hrs
[9] = molecular target: T2, S-phase kinase-associated protein 2/Bifunctional ligase/repressor BirA (Homo sapiens); assay: PROTAC activity at Skp2 in HeLa cells/N-terminal HaloTag7-fused TurboID (unknown origin) stably expressed in HeLa cells assessed as protein degradation at 30 uM incubated for 3 hrs by Western blot analysis; format: cell-based
[10] = molecular target: T2, S-phase kinase-associated protein 2/Bifunctional ligase/repressor BirA (Homo sapiens); assay: PROTAC activity at Skp2 in HeLa cells/N-terminal HaloTag7-fused TurboID (unknown origin) stably expressed in HeLa cells assessed as protein degradation at 30 uM incubated for 3 to 8 hrs in presence of Epoxomicin by Western blot analysis; format: cell-based; details: time 3-8 hrs
[11] = molecular target: T2, S-phase kinase-associated protein 2/Bifunctional ligase/repressor BirA (Homo sapiens); assay: PROTAC activity at Skp2 in HeLa cells/N-terminal HaloTag7-fused TurboID (unknown origin) stably expressed in HeLa cells assessed as protein degradation at 30 uM incubated for 8 hrs in presence of MLN4924 by Western blot analysis; format: cell-based
[12] = molecular target: T2, S-phase kinase-associated protein 2/Bifunctional ligase/repressor BirA (Homo sapiens); assay: PROTAC activity at Skp2 in HeLa cells/N-terminal HaloTag7-fused TurboID (unknown origin) stably expressed in HeLa cells assessed as protein degradation at 30 uM incubated for 3 to 8 hrs in presence of BafA by Western blot analysis; format: cell-based; details: time 3-8 hrs

Activity [1]: Active
SMILES: O=C(O)CCc1ccc(OCCCOCCCOCCCCCCCl)cc1/C=C1\SC(=S)N(Cc2cccnc2)C1=O

T/C [2]: 37
T/C [3]: 64
T/C [4]: 82
SMILES: O=C(O)CCc1ccc(OCCOCCOCCOCCOCCOCCCCCCCl)cc1/C=C1\SC(=S)N(Cc2cccnc2)C1=O

Activity [5]: inactive
SMILES: OCCOCCOCCOCCOCCCCCCCl

T/C [2]: 25
Activity [6]: inactive
Activity [7]: Active
Activity [8]: Active
Activity [9]: Active
Activity [10]: inactive
Activity [11]: Active
Activity [12]: Active
SMILES: O=C(O)CCc1ccc(OCCOCCOCCOCCOCCCCCCCl)cc1/C=C1\SC(=S)N(Cc2cccnc2)C1=O

T/C [2]: 81
SMILES: O=C(O)CCc1ccc(OCCOCCOCCOCCCCCCCl)cc1/C=C1\SC(=S)N(Cc2cccnc2)C1=O

Activity [5]: inactive
SMILES: O=C(O)COc1ccc(O)cc1/C=C1\SC(=S)N(Cc2cccnc2)C1=O

T/C [2]: 103
T/C [3]: 121
T/C [4]: 111
SMILES: O=C(O)COc1ccc(OCCOCCOCCOCCOCCOCCCCCCCl)cc1/C=C1\SC(=S)N(Cc2cccnc2)C1=O
